The structures appear in SMILES notation. ≈ marks a conversion by molar mass, not a printed value.

One series deals with Aphidius rhopalosiphi. Kind of series: LR50; higher = less toxic. The following applies: acute; duration: 48 hours; mortality.
A further series concerns Typhlodromus pyri. Put plainly: LR50; higher = less toxic. The following applies: chronic/long-term; duration: 7 days; mortality.
In another series the test system is Anas platyrhynchos. The following applies: reproductive.
The subject of another series is Apis mellifera. The note with it: acute; duration: 48 hours; oral; unspecified; mortality.
A further series deals with Colinus virginianus. The note with it: for LD50: acute, oral, mortality.
Another series deals with Mus musculus. The following applies: acute; oral; F; mortality.
The next series deals with Daphnia magna. The note with it: chronic/long-term; duration: 21 days; reproduction.
In a further series the test system is Canidae. The following applies: chronic; duration: 1 years; oral; Dog Other; clinical signs.
The subject of the next series is Bibionidae. The note with it: chronic/long-term; duration: 28 days; no effects.
The next series has as its system Pimephales promelas. The following applies: chronic/long-term; duration: 28 days; body weight.
A further series concerns Lepomis macrochirus. The note with it: acute; duration: 96 hours; mortality.

With `CC(C)C1CCC(Cc2ccc(Cl)cc2)C1(O)Cn1cncn1` (stereo not drawn) [Ipconazole], the LR50 in the series on Aphidius rhopalosiphi was determined as 35.1 g/ha; with Typhlodromus pyri it was 17.4 g/ha. Moreover, the LD50 was greater than 2000 mg/kg with Rattus norvegicus (acute, oral, F, mortality); greater than 100 µg/piece in the series on Apis mellifera; greater than 300 mg/kg-day with Colinus virginianus (diet); 962 mg/kg with Colinus virginianus; 468 mg/kg with Mus musculus. Further, the NOAEL with Rattus norvegicus (developmental, development) stood at 3 mg/kg-day; in the series on Rattus norvegicus (reproduction developmental, body weight), 8 mg/kg-day; in the series with Canidae, 1.5 mg/kg-day. Moreover, the NOEL amounted to 27.1 mg/kg-day in the series on Anas platyrhynchos and 4.3 mg/kg-day with Colinus virginianus (reproduction developmental). The LC50 turned out to be 597 mg/kg in the series on Tagia sp. (acute, duration: 14 days, mortality) and 1.3 µg/mL (≈ 3.89 µM) in the series with Lepomis macrochirus. Moreover, the NOEC with Tagia sp. (chronic/long-term, duration: 8 weeks, reproduction) was determined as 0.78 mg/kg; in the series on Daphnia magna, 10.9 µg/L; with Bibionidae it was 3.52 mg/L; in the series with Pimephales promelas, 0.44 µg/L.

Usually NOAEL stands for the highest tested level that showed no adverse finding.

These data come from EPA's ToxValDB 9.5 (doi:10.2903/j.efsa.2013.3181).
